Columns and labels:
corn = assay: Test A postemergence; type: in vivo, Zea mays; settings: 0 to 100 scale (0 no effect, 100 complete control), approx. 10 d
Outline: (§1)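 Loam/sand soil mix; compound in non-phytotoxic solvent + surfactant. Pre: directed soil spray right after planting seed. Post: potted plants 2–10 cm, 1–2 leaf stage, sprayed with same formulation.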

foxtail, giant [1] = assay: Test C postemergence; type: in vivo, Setaria faberii
Outline: (§2)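 Test chemicals in a non-phytotoxic solvent mixture with surfactant were applied to pots of plants at 2 to 18 cm (1- to 4-leaf stage) for postemergence treatment, grown in a peat-based medium with vermiculite, starter nutrients and dolomitic limestone. Preemergence treatment was to seeds freshly planted in loam soil mixed with sand.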

oilseed rape = assay: Test C postemergence; type: in vivo, Brassica napus
Outline: as §2

blackgrass = assay: Test C postemergence; type: in vivo, Alopecurus myosuroides
Outline: as §2

velvetleaf = assay: Test C postemergence; type: in vivo, Abutilon theophrasti
Outline: as §2

oat, wild = assay: Test C postemergence; type: in vivo, Avena fatua
Outline: as §2

chickweed = assay: Test C postemergence; type: in vivo, Stellaria media
Outline: as §2

ryegrass, Italian = assay: Test C postemergence; type: in vivo, Lolium multiflorum
Outline: as §2

kochia = assay: Test C postemergence; type: in vivo, Kochia scoparia
Outline: as §2

barnyardgrass [2] = assay: Test A postemergence; type: in vivo, Echinochloa crus-galli; settings: 0 to 100 scale (0 no effect, 100 complete control), approx. 10 d
Outline: as §1

pigweed [3] = assay: Test C postemergence; type: in vivo, Amaranthus retroflexus
Outline: as §2

pigweed [4] = assay: Test A preemergence; type: in vivo, Amaranthus retroflexus; settings: 0 to 100 scale (0 no effect, 100 complete control)
Outline: as §1

nutsedge, yellow = assay: Test C postemergence; type: in vivo, Cyperus esculentus
Outline: as §2

wheat (winter wheat) = assay: Test C postemergence; type: in vivo, Triticum aestivum
Outline: as §2

ducksalad = assay: Test B flooded paddy test; type: in vivo, Heteranthera limosa; settings: 250 g ai/ha, applied to paddy water at 2-leaf stage, visual rating after 13 to 15 d, scale 0 (no effect) to 100 (complete control)
Outline: (§3)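 Pots were flooded to 3 cm above the soil at treatment, and compounds were applied directly into the paddy water. That depth was held throughout. After 13 to 15 d in a greenhouse, plants were rated visually against untreated controls.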

ragweed = assay: Test C postemergence; type: in vivo, Ambrosia elatior
Outline: as §2

rice = assay: Test B flooded paddy test; type: in vivo, Oryza sativa; settings: 250 g ai/ha, applied to paddy water at 2-leaf stage, visual rating after 13 to 15 d, scale 0 (no effect) to 100 (complete control)
Outline: as §3

johnsongrass = assay: Test C postemergence; type: in vivo, Sorghum halepense
Outline: as §2

barnyardgrass [5] = assay: Test C postemergence; type: in vivo, Echinochloa crus-galli
Outline: as §2

foxtail, giant [6] = assay: Test A postemergence; type: in vivo, Setaria faberii; settings: 0 to 100 scale (0 no effect, 100 complete control), approx. 10 d
Outline: as §1

SMILES: Fc1ccc(-c2nc(OCC(F)(F)F)n(Cc3ccnc(C(F)(F)F)c3)n2)cc1 [Compound 30]
- Plant response rating, Corn (corn; 125 g ai/ha): 40
- Plant response rating, Corn (corn; 500 g ai/ha): 50
- Plant response rating (scale of 0 to 100 where 0 is no effect and 100 is complete control) (foxtail, giant [1]; 31 g ai/ha): 5
- Plant response rating (scale of 0 to 100 where 0 is no effect and 100 is complete control) (foxtail, giant [1]; 62 g ai/ha): 10
- Plant response rating (scale of 0 to 100 where 0 is no effect and 100 is complete control) (foxtail, giant [1]; 125 g ai/ha): 25
- Plant response rating (scale of 0 to 100 where 0 is no effect and 100 is complete control) (foxtail, giant [1]; 250 g ai/ha): 25
- Plant response rating (scale of 0 to 100 where 0 is no effect and 100 is complete control) (oilseed rape; Oilsee Rape, 250 g ai/ha): 95
- Plant response rating (scale of 0 to 100 where 0 is no effect and 100 is complete control) (oilseed rape; Oilseed Rape, 31 g ai/ha): 35
- Plant response rating (scale of 0 to 100 where 0 is no effect and 100 is complete control) (oilseed rape; Oilseed Rape, 62 g ai/ha): 80
- Plant response rating (scale of 0 to 100 where 0 is no effect and 100 is complete control) (oilseed rape; Oilseed Rape, 125 g ai/ha): 95
- Plant response rating (scale of 0 to 100 where 0 is no effect and 100 is complete control) (blackgrass; 31 g ai/ha): 25
- Plant response rating (scale of 0 to 100 where 0 is no effect and 100 is complete control) (blackgrass; 62 g ai/ha): 30
- Plant response rating (scale of 0 to 100 where 0 is no effect and 100 is complete control) (blackgrass; 125 g ai/ha): 40
- Plant response rating (scale of 0 to 100 where 0 is no effect and 100 is complete control) (blackgrass; 250 g ai/ha): 60
- Plant response rating (scale of 0 to 100 where 0 is no effect and 100 is complete control) (velvetleaf; 31 g ai/ha): 55
- Plant response rating (scale of 0 to 100 where 0 is no effect and 100 is complete control) (velvetleaf; 62 g ai/ha): 60
- Plant response rating (scale of 0 to 100 where 0 is no effect and 100 is complete control) (velvetleaf; 125 g ai/ha): 80
- Plant response rating (scale of 0 to 100 where 0 is no effect and 100 is complete control) (velvetleaf; 250 g ai/ha): 90
- Plant response rating (scale of 0 to 100 where 0 is no effect and 100 is complete control) (oat, wild; 31 g ai/ha): 25
- Plant response rating (scale of 0 to 100 where 0 is no effect and 100 is complete control) (oat, wild; 62 g ai/ha): 15
- Plant response rating (scale of 0 to 100 where 0 is no effect and 100 is complete control) (oat, wild; 125 g ai/ha): 30
- Plant response rating (scale of 0 to 100 where 0 is no effect and 100 is complete control) (oat, wild; 250 g ai/ha): 45
- Plant response rating (scale of 0 to 100 where 0 is no effect and 100 is complete control) (chickweed; 31 g ai/ha): 95
- Plant response rating (scale of 0 to 100 where 0 is no effect and 100 is complete control) (chickweed; 62 g ai/ha): 95
- Plant response rating (scale of 0 to 100 where 0 is no effect and 100 is complete control) (chickweed; 125 g ai/ha): 100
- Plant response rating (scale of 0 to 100 where 0 is no effect and 100 is complete control) (chickweed; 250 g ai/ha): 100
- Plant response rating (scale of 0 to 100 where 0 is no effect and 100 is complete control) (ryegrass, Italian; 31 g ai/ha): 20
- Plant response rating (scale of 0 to 100 where 0 is no effect and 100 is complete control) (ryegrass, Italian; 62 g ai/ha): 25
- Plant response rating (scale of 0 to 100 where 0 is no effect and 100 is complete control) (ryegrass, Italian; 125 g ai/ha): 30
- Plant response rating (scale of 0 to 100 where 0 is no effect and 100 is complete control) (ryegrass, Italian; 250 g ai/ha): 50
- Plant response rating (scale of 0 to 100 where 0 is no effect and 100 is complete control) (kochia; 31 g ai/ha): 100
- Plant response rating (scale of 0 to 100 where 0 is no effect and 100 is complete control) (kochia; 62 g ai/ha): 100
- Plant response rating (scale of 0 to 100 where 0 is no effect and 100 is complete control) (kochia; 125 g ai/ha): 100
- Plant response rating (scale of 0 to 100 where 0 is no effect and 100 is complete control) (kochia; 250 g ai/ha): 100
- Plant response rating, Barnyardgrass (barnyardgrass [2]; 125 g ai/ha): 80
- Plant response rating, Barnyardgrass (barnyardgrass [2]; 500 g ai/ha): 90
- Plant response rating (scale of 0 to 100 where 0 is no effect and 100 is complete control) (pigweed [3]; 31 g ai/ha): 95
- Plant response rating (scale of 0 to 100 where 0 is no effect and 100 is complete control) (pigweed [3]; 62 g ai/ha): 95
- Plant response rating (scale of 0 to 100 where 0 is no effect and 100 is complete control) (pigweed [3]; 125 g ai/ha): 98
- Plant response rating (scale of 0 to 100 where 0 is no effect and 100 is complete control) (pigweed [3]; 250 g ai/ha): 98
- Plant response rating, Pigweed (pigweed [4]; 125 g ai/ha): 100
- Plant response rating, Pigweed (pigweed [4]; 500 g ai/ha, approx. 10 d): 100
- Plant response rating (scale of 0 to 100 where 0 is no effect and 100 is complete control) (nutsedge, yellow; 31 g ai/ha): 5
- Plant response rating (scale of 0 to 100 where 0 is no effect and 100 is complete control) (nutsedge, yellow; 62 g ai/ha): 5
- Plant response rating (scale of 0 to 100 where 0 is no effect and 100 is complete control) (nutsedge, yellow; 125 g ai/ha): 10
- Plant response rating (scale of 0 to 100 where 0 is no effect and 100 is complete control) (nutsedge, yellow; 250 g ai/ha): 15
- Plant response rating (scale of 0 to 100 where 0 is no effect and 100 is complete control) (wheat (winter wheat); 31 g ai/ha): 5
- Plant response rating (scale of 0 to 100 where 0 is no effect and 100 is complete control) (wheat (winter wheat); 62 g ai/ha): 5
- Plant response rating (scale of 0 to 100 where 0 is no effect and 100 is complete control) (wheat (winter wheat); 125 g ai/ha): 15
- Plant response rating (scale of 0 to 100 where 0 is no effect and 100 is complete control) (wheat (winter wheat); 250 g ai/ha): 20
- Plant response rating, Ducksalad, Flood (ducksalad): 80
- Plant response rating (scale of 0 to 100 where 0 is no effect and 100 is complete control) (ragweed; 31 g ai/ha): 65
- Plant response rating (scale of 0 to 100 where 0 is no effect and 100 is complete control) (ragweed; 62 g ai/ha): 55
- Plant response rating (scale of 0 to 100 where 0 is no effect and 100 is complete control) (ragweed; 125 g ai/ha): 65
- Plant response rating (scale of 0 to 100 where 0 is no effect and 100 is complete control) (ragweed; 250 g ai/ha): 85
- Plant response rating, Rice, Flood (rice): 30
- Plant response rating (scale of 0 to 100 where 0 is no effect and 100 is complete control) (johnsongrass; 31 g ai/ha): 30
- Plant response rating (scale of 0 to 100 where 0 is no effect and 100 is complete control) (johnsongrass; 62 g ai/ha): 100
- Plant response rating (scale of 0 to 100 where 0 is no effect and 100 is complete control) (johnsongrass; 125 g ai/ha): 35
- Plant response rating (scale of 0 to 100 where 0 is no effect and 100 is complete control) (johnsongrass; 250 g ai/ha): 30
- Plant response rating (scale of 0 to 100 where 0 is no effect and 100 is complete control) (barnyardgrass [5]; 31 g ai/ha): 25
- Plant response rating (scale of 0 to 100 where 0 is no effect and 100 is complete control) (barnyardgrass [5]; 62 g ai/ha): 20
- Plant response rating (scale of 0 to 100 where 0 is no effect and 100 is complete control) (barnyardgrass [5]; 125 g ai/ha): 40
- Plant response rating (scale of 0 to 100 where 0 is no effect and 100 is complete control) (barnyardgrass [5]; 250 g ai/ha): 85
- Plant response rating, Foxtail, Giant (foxtail, giant [6]; 125 g ai/ha): 80
- Plant response rating, Foxtail, Giant (foxtail, giant [6]; 500 g ai/ha): 90

— patent US10681909B2, “Herbicidal triazoles” (FMC Corporation, priority 2014, dated 2020)
